Measured values published in ChEMBL document CHEMBL4706582, “Design, synthesis and molecular docking study of α-triazolylsialosides as non-hydrolyzable and potent CD22 ligands” (Eur J Med Chem, 2020).

Legend:
B-cell receptor CD22 = target: T1, B-cell receptor CD22 (Homo sapiens, UniProt P20273); experiment: Binding affinity to recombinant human CD22d1-3-Fc expressed in 293T cells by surface plasmon resonance assay; design: species or system HEK293T
T1 sequence (P20273 whole entry): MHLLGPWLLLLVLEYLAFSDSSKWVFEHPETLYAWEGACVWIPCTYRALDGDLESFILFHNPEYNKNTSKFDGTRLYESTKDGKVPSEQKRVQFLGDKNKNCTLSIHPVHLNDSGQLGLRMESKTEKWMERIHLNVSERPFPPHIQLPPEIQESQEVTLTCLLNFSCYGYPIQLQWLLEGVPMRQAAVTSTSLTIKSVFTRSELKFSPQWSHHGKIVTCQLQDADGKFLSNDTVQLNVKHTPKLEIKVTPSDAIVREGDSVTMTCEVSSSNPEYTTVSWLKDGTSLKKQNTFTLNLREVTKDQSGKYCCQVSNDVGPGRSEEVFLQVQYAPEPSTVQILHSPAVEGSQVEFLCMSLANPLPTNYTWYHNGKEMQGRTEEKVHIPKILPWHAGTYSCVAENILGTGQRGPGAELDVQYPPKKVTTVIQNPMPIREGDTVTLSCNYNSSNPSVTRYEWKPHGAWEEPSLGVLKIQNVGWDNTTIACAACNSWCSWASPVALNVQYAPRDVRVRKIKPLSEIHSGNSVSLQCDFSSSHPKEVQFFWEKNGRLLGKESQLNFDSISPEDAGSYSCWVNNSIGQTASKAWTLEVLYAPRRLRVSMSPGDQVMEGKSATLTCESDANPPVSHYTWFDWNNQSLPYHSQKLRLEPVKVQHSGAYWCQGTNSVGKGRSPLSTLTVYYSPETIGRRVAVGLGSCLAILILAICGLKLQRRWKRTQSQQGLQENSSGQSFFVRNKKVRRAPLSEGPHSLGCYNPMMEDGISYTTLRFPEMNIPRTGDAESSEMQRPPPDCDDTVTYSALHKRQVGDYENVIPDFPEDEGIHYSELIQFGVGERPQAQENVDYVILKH

[1] = target: T2, Myelin-associated glycoprotein (Homo sapiens, UniProt P20916); experiment: Binding affinity to human MAG by surface plasmon resonance assay
T2 sequence (P20916 whole entry): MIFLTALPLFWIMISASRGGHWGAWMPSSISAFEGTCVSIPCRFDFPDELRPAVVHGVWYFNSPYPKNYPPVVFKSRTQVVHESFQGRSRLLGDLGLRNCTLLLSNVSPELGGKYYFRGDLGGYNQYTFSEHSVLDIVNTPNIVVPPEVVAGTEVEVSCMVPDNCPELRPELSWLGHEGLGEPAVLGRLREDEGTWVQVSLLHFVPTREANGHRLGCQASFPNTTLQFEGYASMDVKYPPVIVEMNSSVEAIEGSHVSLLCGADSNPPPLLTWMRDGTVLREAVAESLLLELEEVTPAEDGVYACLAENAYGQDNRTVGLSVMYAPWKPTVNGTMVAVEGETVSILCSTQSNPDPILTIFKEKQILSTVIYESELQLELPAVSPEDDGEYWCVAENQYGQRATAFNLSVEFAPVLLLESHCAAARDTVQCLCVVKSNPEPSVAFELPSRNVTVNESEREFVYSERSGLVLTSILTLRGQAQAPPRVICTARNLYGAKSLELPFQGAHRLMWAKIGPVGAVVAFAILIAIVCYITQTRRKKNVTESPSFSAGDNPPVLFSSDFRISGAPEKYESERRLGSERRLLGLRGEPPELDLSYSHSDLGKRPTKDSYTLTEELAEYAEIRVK

Homo sapiens = species on record: Homo sapiens; experiment: Selectivity index, ratio of Kd for human MAG to Kd for human CD22

Structure (SMILES)	Kd (B-cell receptor CD22) [nM]	Kd [1] [nM]	Selectivity Index (Homo sapiens)
O=C(Cc1ccc(-c2ccc(O)cc2)cc1)NC[C@@H](O)[C@@H](O)[C@@H]1O[C@](C(=O)O)(n2cc(COC3CCCCC3)nn2)C[C@H](O)[C@H]1NC(=O)CO	860		
O=C(CCCC[C@H]1SC[C@H]2NC(=O)N[C@H]21)NCCOCCOCCOCCn1cc(-c2ccc(CO[C@]3(C(=O)O)C[C@H](O)[C@@H](NC(=O)CO)[C@H]([C@H](O)[C@H](O)CNC(=O)Cc4ccc(-c5ccc(O)cc5)cc4)O3)cc2)nn1	740		
C#Cc1ccc(CO[C@]2(C(=O)O)C[C@H](O)[C@@H](NC(=O)CO)[C@H]([C@H](O)[C@H](O)CNC(=O)Cc3ccc(-c4ccc(O)cc4)cc3)O2)cc1	628		

The next lines start with the values.

Kd (B-cell receptor CD22) [nM]	Kd [1] [nM]	Selectivity Index (Homo sapiens)	Structure (SMILES)
335	30700	91.6	O=C(Cc1ccc(-c2ccc(O)cc2)cc1)NC[C@@H](O)[C@@H](O)[C@@H]1O[C@](C(=O)O)(n2cc(-c3ccccc3)nn2)C[C@H](O)[C@H]1NC(=O)CO
766			O=C(Cc1ccc(-c2ccc(O)cc2)cc1)NC[C@@H](O)[C@@H](O)[C@@H]1O[C@](C(=O)O)(n2cc(CC3CCCCC3)nn2)C[C@H](O)[C@H]1NC(=O)CO
620			O=C(Cc1ccc(-c2ccc(O)cc2)cc1)NC[C@@H](O)[C@@H](O)[C@@H]1O[C@](C(=O)O)(n2cc(-c3ccc(-c4ccccc4)cc3)nn2)C[C@H](O)[C@H]1NC(=O)CO
952			O=C(Cc1ccc(-c2ccc(O)cc2)cc1)NC[C@@H](O)[C@@H](O)[C@@H]1O[C@](C(=O)O)(n2cc(Cc3ccccc3)nn2)C[C@H](O)[C@H]1NC(=O)CO
458	56400	123	O=C(Cc1ccc(-c2ccc(O)cc2)cc1)NC[C@@H](O)[C@@H](O)[C@@H]1OC(OCc2ccccc2)(C(=O)O)CC(O)[C@H]1NC(=O)CO (single isomer, unassigned)
